Several values for one entry are separate records, joined by “and”; a condition that tells them apart may be missing. Identical values can stand only once. Like-named read-outs stand apart in the source and are kept apart here.
How the values were obtained:
[1] = Modulated differential scanning calorimetry (MDSC) of hydrated lipid bilayers; assay type: physicochemical; conditions: for enthalpy of transition / phase-transition temperature (Tm) of the bilayer: lipid hydrated in water, MDSC; for increase of Tm over the glycerol analog: DLRPC vs DLPC, DMRPC vs DMPC
Experimental: The phase-transition temperatures (Tm) of the bilayers formed by DLRPC, DMRPC and DARPC were determined by modulated differential scanning calorimetry (MDSC). […] For DARPC, the similarity in Tm was not entirely unexpected since tail—tail interactions contribute more to the Tm as the tail length increases. […] At the phase-transition temperature, the bilayer transformed from the gel-liquid crystalline phase in glycerol based phospholipids such as DLPC and DMPC. This endothermic process was observed as two discreet events. A small pre-transition peak, corresponding to the conversion from a lamellar gel (Lβ) phase to rippled gel (Pβ) phase, occurred below a much larger sharp main transition peak corresponding to conversion of the Pβ phase to the liquid crystalline Lα phase. The temperature at which the pre-transition existed as well as the enthalpy of the transition both changed as a function of tail length in a linear pattern. This presence of two well-defined phase transitions was not observed for the carbohydrate-based lipids.
Thermal Analysis of DLRPC 1-2 mgs of lipid were hermetically sealed with […] water in an aluminum pan. The modulation was set to ±1.00° C. every 40 seconds and the pan was equilibrated at −15° C. The temperature was increased at 0.5° C./min to 70° C. where the temperature was held for 2 minutes. The temperature was then reduced to −10° C. and held at this temperature for 2 minutes. This heating-cooling cycle was repeated two more times before the sample was held isothermal at −10° C. for 20 minutes. Integrating under the heat flow peak curve of the main peak provides the enthalpy of the transition. TA Instruments Universal Analysis computer program (available from TA Instruments of New Castle, Del., United States of America) was used to analyze the data. DLRPC has a Tm of 15.75° C. and an enthalpy of 3.3 kcal/mol.
The same modulated differential scanning calorimetry method used on DLRPC was employed to obtain thermotropic data on DMRPC.
The same modulated differential scanning calorimetry method used on DLRPC was employed to obtain thermotropic data on DARPC.

[2] = literature value, Marsh, CRC Handbook of Lipid Bilayers; cited from earlier work
[3] = glycerol analog, Van Dijck et al.; cited from earlier work
PLA2 (naja naja venom) = assay: pH-stat phospholipase assay; assay type: biochemical; conditions: for initial average rate of hydrolysis by PLA2: lipid as substrate, Triton X-100 40 mM, CaCl2 10 mM, 40° C., pH 8.0, PLA2 0.1 units/mL
Experimental: The pH-stat phospholipase assays were performed on a Metrohm 718 STAT Titrino pH-stat following a procedure described by Yuan et al. (Yuan, W.; Berman, R. J.; Gelb, M. H. J. Am. Chem. Soc. 1987, 109, 8071-8081; Deems, R. A.; Dennis, E. A. Methods Enzym 1981, 71, 703-710.) Before the assays were performed, the pH-stat was calibrated at pH 7 and pH 4. The NaOH (0.01 N) titrant was standardized by titration to pH 8.65 with a weighed amount of potassium hydrogen-phthalate in 40 mL of Dl water. The lipid was transferred to a 5 mL round bottom flask in methylene chloride/methanol (98/2) and the solvent was removed by rotoevaporation. High vacuum then removed trace amounts of remaining solvent. The lipid film was rehydrated with 2 mL of an aqueous solution containing TRITON X-100™ detergent (Sigma Chemical Company, St. Louis, Mo.) (40 mM) and CaCl2 (10 mM) and then sonicated briefly to solubilize the lipids.
Next, the solution was immersed in a temperature-controlled bath at 40° C. and stirred with a magnetic stir bar. A stream of argon was passed over the reaction mixture to prevent CO2 absorption. A microelectrode (Metrohm 6.0224.100 pH 1-11/0-60° C. Idrolyte) was inserted through the top of the reaction vessel along with the dosing tube from the pH-stat. The reaction mixture was adjusted to a pH of 8.2 by addition of NaOH. Next, 0.2 units of PLA2 (naja naja venom, Sigma Chemical Company, St. Louis, Mo.) (0.1 units/mL) was added to the reaction and the reaction started. The pH was allowed to drop to 8.0 and held at this value by addition of NaOH. At pH 8, the fatty acids were almost completely ionized; therefore, the amount of base added as a function of time indicates cleavage of the ester bond.
In this Example, enzymatic activity was recorded using a pH-stat, which maintains a specific pH by adding base during the enzymatic reaction. During these assays, DMPC was hydrolyzed with an initial average rate of 6.19 E-08 (moles NaOH/minute) (std dev 6.72E-10).
Next, whether DMRPC inhibits PLA2 activity was investigated. Using DMPC (5 mM) as a substrate, DMRPC was added to the reaction mixture at varying concentrations. […] With a change in structure, different carbohydrate-based phospholipids could inhibit PLA2.

[4] = Carboxyfluorescein leakage assay of carbohydrosomes; assay type: physicochemical
Text: The following procedure is adapted from Weinstein et al. (Weinstein, et al., Self-Quenching of Carboxyfluorescein Fluorescence: Uses in Studying Liposome Stability and Liposome-Cell Interaction; Weinstein, J. N.; et al., Ed.; CRC Press, Inc.: Boca Raton, Fla., United States of Amenica 1984; Vol. 3, pp 183-204.) and was successfully used in DMPC control experiments. Immediately before use, the carbohydrate-based lipid DMRPC, was passed through a C-18 SEP PAK™ column using a solvent system of 10% MeOH/CH3CN. Both the cholesterol and DMRPC were dissolved in chloroform and mixed. The mixtures were dried by rotoevaporation in a 100 mL round bottom flask before being thoroughly dried by high vacuum. […] The size of the liposomes was determined using dynamic light scattering. […] The filtered liposomes were diluted into osmotically equivalent 20 mM PBS buffer at pH 7.4 and the fluorescence intensity was measured over time. […]
As discussed herein above, one of the most wide-spread uses of liposomes is as drug delivery vehicles in warm-blooded vertebrates, including humans. […] In this Example, release of the self-quenching dye 5(6)-carboxyfluorescein (encapsulated in 5 mg/mL) was monitored over time by preparing carboxyfluorescein-containing carbohydrosomes using the high-pressure extrusion method. […]

[5] = 40 mol % cholesterol; McMullen et al.; cited from earlier work
[6] = MDSC thermal analysis of DLRPA as a function of pH; assay type: physicochemical
Text: The same modulated differential scanning calorimetry method used on DLRPC was employed to obtain thermotropic data on DLRPA. Instead of using water to hydrate the samples however, the following 5 buffers were utilized: a) 0.1 M KCl/HCl at pH 1.5, b) 0.1 M KCl/HCl at pH 4.14, c) 0.1 M Tris-HCl at pH 7.4, d) 0.01 M sodium borate at pH 8.44, and e) 0.01 M sodium borate at pH 9.5.
The effect of pH on the phase-transition temperature of DLRPA supramolecular structures was probed using modulated differential scanning calorimetry. Experiments were performed in the following 5 solutions: a) 0.1 M KCl/HCl at pH 1.5, b) 0.1 M KCl/HCl at pH 4.14, c) 0.1 M Tris-HCl at pH 7.4, d) 0.01 M sodium borate at pH 8.44, and e) 0.01 M sodium borate at pH 9.5.

[7] = Cholesterol interactions: MDSC of lipid/cholesterol mixtures; assay type: physicochemical
Experimental: The enthalpy was zero at 50 mol % cholesterol for DMRPC. For the glycerol-based phospholipid, cholesterol packed in the bilayer membrane with its hydroxyl group at the same level as the acyl groups. In this structural arrangement, cholesterol primarily interacted with the tails and not the head group or backbone.
For DMRPC, a slight decrease in phase-transition temperature was observed. The phase-transition temperature decreased from ˜30° C. at 0 mol % cholesterol to ˜27° C. at 35 mol % cholesterol. […] The carbohydrate backbone of DMRPC likely altered the effective hydrophobic length of the bilayer area (this DMRPC is similar to longer tail systems). There was a slight destabilization of the bilayer membrane with the incorporation of cholesterol as indicated by the decrease in phase-transition temperature. […] X-ray data on 20 mol % cholesterol/DMRPC confirmed the Lc state.

## CCCCCCCCCCCCCCCCCCCC(=O)OC[C@H](COP(=O)([O-])OCC[N+](C)(C)C)OC(=O)CCCCCCCCCCCCCCCCCCC [DAPC, reference compound]
[1]
  enthalpy of transition: 12.6 ± 0.7 kcal/mol
  phase-transition temperature (Tm) of the bilayer: 66 °C
[2]
  enthalpy of transition (literature): 11.93 kcal/mol

## CCCCCCCCCCCC(=O)OC[C@H](COP(=O)(O)O)OC(=O)CCCCCCCCCCC [DLPA, dilauroyl phosphatidic acid]
[3]
  pH at which the first proton of the phosphate is lost: 3-4
  pH at which the second proton of the phosphate is lost: ~7

## CCCCCCCCCCCC(=O)OC[C@H](COP(=O)([O-])OCC[N+](C)(C)C)OC(=O)CCCCCCCCCCC [DLPC, 1,2-dilauroyl-sn-glycero-3-phosphocholine, reference compound]
[1]
  enthalpy of transition: 1.5 kcal/mol
  phase-transition temperature (Tm) of the bilayer: −1.1±0.8 °C

## CCCCCCCCCCCC(=O)O[C@H]1[C@H](OC)O[C@H](COP(=O)([O-])OCC[N+](C)(C)C)[C@H]1OC(=O)CCCCCCCCCCC [DLRPC, Methyl-2,3-di-O-lauroyl-b-D-ribo-5-phosphocholine]
[1]
  increase of Tm over the glycerol analog: 16 °C
  enthalpy of transition: 3.3 ± 0.3 kcal/mol and 3.3 kcal/mol
  phase-transition temperature (Tm) of the bilayer: 15.75±0.05 °C and 15.75 °C

## CCCCCCCCCCCCCC(=O)OC[C@H](COP(=O)([O-])OCC[N+](C)(C)C)OC(=O)CCCCCCCCCCCCC [DMPC, reference compound]
[1]
  enthalpy of transition: 5.6 ± 1.1 kcal/mol
  phase-transition temperature (Tm) of the bilayer: 23.5 °C
PLA2 (naja naja venom)
  initial average rate of hydrolysis by PLA2: 6.19 E-08 moles NaOH/minute and 6.19 E-08 (std. dev. 6.72E-10) moles NaOH/minute
[4]; vesicles in 20 mM PBS pH 7.4
  release of carboxyfluorescein in the first 20 minutes: release dye over the first 20 minutes
[2]
  enthalpy of transition (literature): 5.9 ± 0.6 kcal/mol
[5]
  increase in phase-transition temperature: ≤ 17 °C

## bis-(2,3-lauroyl)-1-methoxy-5-ribo-phosphatidic acid [DLRPA]
[6]; from Tm versus pH profile
  pH at which the first proton of the phosphate is lost: 3-4
  pH at which the second proton of the phosphate is lost: ~8.5
[6]; pH 1.5, 0.1 M KCl/HCl
  Tm: ~45 °C
[6]; pH 4.14, 0.1 M KCl/HCl
  Tm: 34 °C
[6]; pH 7.4, 0.1 M Tris-HCl
  Tm: 31 °C
[6]; pH 8.4, 0.01 M sodium borate
  Tm: 29 °C
[6]; pH 9.5, 0.01 M sodium borate
  Tm: ~18 °C

## methyl-2,3-di-O-arachadonyl-b-D-ribo-5-phosphocholine [DARPC]
[1]
  enthalpy of transition: 5.1 ± 1.5 kcal/mol and 5.1 kcal/mol
  phase-transition temperature (Tm) of the bilayer: 63.5±0.6 °C and 63.5 °C

## methyl-2,3-di-O-myristoyl-b-D-ribo-5-phosphocholine [DMRPC]
[1]
  increase of Tm over the glycerol analog: approximately 6 °C
  enthalpy of transition: 6.1 ± 1.0 kcal/mol and 6.1 kcal/mol
  phase-transition temperature (Tm) of the bilayer: 29.6±0.3 °C and 29 °C and 29.6 °C
[7]; 0 mol % cholesterol
  phase-transition temperature: ~30 °C
[7]; 35 mol % cholesterol
  phase-transition temperature: ~27 °C
[7]; 50 mol % cholesterol
  enthalpy of transition: zero
PLA2 (naja naja venom); DMPC (5 mM) as substrate, DMRPC added to the reaction mixture
  hydrolysis rate of DMPC with DMRPC added: 6.32E-08 (std. dev. 1.36E-08) moles NaOH/minute
PLA2 (naja naja venom); DMPC (5 mM) as substrate, as much as 4 mM DMRPC added
  inhibition of PLA2 activity: did not yield a significant hydrolysis rate decrease
PLA2 (naja naja venom)
  initial average rate of hydrolysis by PLA2: not hydrolyzed
[4]; vesicles of 100% DMRPC (0% cholesterol)
  vesicle survival of SEPHADEX G-50 column separation: too fragile to survive

From US6696081B2, “Carbohydrate based lipid compositions and supramolecular structures comprising same” (Duke University, priority 2000, dated 2004)
